# Experimental data published in US6610890B1, “Aldose reductase inhibitors and pharmaceutical compositions” (O.N.C.E.-(Organizacion Nacional De Cicgos), priority 1998, dated 2003).
# Like-named read-outs stand apart in the source and are kept apart here.
# Experiments:
# [1] = biological target: T1, Human recombinant aldose reductase (Homo sapiens, UniProt P15121); experiment: Inhibition of human recombinant aldose reductase (NADPH disappearance at 340 nm); assay type: biochemical
# T1 construct: made in house; host or cells: Sf9 insect cells (Spodoptera frugiperda) infected with recombinant baculovirus AcAR
# Experimental: Human recombinant aldose reductase was obtained and purified as previously described^21 with slight modifications. Briefly, Sf9 insect cells (Spodoplera frugiperda, from Pharmingen) were cultured in Grace's medium (Gibco) at 27° C. Then, cultures were infected with the purified recombinant baculovirus AcAR^22 that was kindly provided by Dr. C. Nishimura (National Children's Medical Research Center, Tokyo, Japan). The enzyme released into the culture medium was purified by affinity chromatography (Matrex Gel Orange A, Amicon). This Aldose Reductase was kept at −20° C. in 50 mM sodium phosphate, pH 7.0, 5 mM dithiotreitol and 50% glycerol.
# Recombinant Aldose Reductase activity was determined according to the method previously described^21. The assay was carried out in a 96-well microtiter plate, at 37° C. in 100 mM sodium phosphate buffer, pH 6.2, 400 mM (NH4)2SO4, 0.1 mM NADPH and 5 mU/ml recombinant aldose reductase (1 mU of activity was defined as a change in absorbance of 0.012 units per minute). The reaction was initiated by addition of 10 mM glyceraldehyde and the enzymatic activity measured as the NADPH disappearance at 340 nm in a plate reader (MR-5000, Dynatech). Compounds were dissolved in DMSO (1% final concentration).
# [2] = system: cells from rabbit cornea (ATCC CCL 60); experiment: Inhibition of intracellular accumulation of sorbitol in rabbit cornea cells; assay type: cell-based; details: Oryctolagus cuniculus, read-out: INHIBITION, IC50 Sorbitol Accumulation
# Experimental: For this assay, cells from rabbit cornea (ATCC CCL 60) were used as previously described^23. In summary, 10×10^6 cells were incubated in 2.5 ml of Minimum Essential Medium (JRH Biosciences), 0.5% foetal calf serum and 50 mM glucose for 16 h at 37° C. in presence of 5% CO2. Compounds under study were added in DMSO whose final concentration was 1%. The sorbitol accumulated in the cells was extracted by lysis with 8% perchloric acid and neutralised with 2N KOH^24. Sorbitol quantitation was carried out using a calorimetric test (D-Sorbitol/Xylitol, Boehringer Mannheim).
# [3] = recombinant enzyme, 37° C., pH 6.2, 10 mM glyceraldehyde, 0.1 mM NADPH, read-out: INHIBITION, IC50 Aldose Reductase
# [4] = rabbit cornea cells, 50 mM glucose, 16 h at 37° C.
IC50 ([2]; 16 h) [µM],SMILES,"IC50 [1, 3] [µM]","IC50 [2, 4] [µM]",melting point [°C],IC50 [1] [µM]
,"Oc1c(Oc2cc(Br)c(Br)c(Br)c2O)cc(Br)c(Br)c1Br [A-I, 3,3′,4,4′,5,5′-hexabromo-2,2′-dihydroxy-oxydiphenyl]",4,1,188 to 190,
,"Oc1c(Br)cc(Oc2cc(Br)c(Br)c(Br)c2O)c(O)c1Br [A-II, 3,3′,4′,5,5′-pentabromo-2,2′,4-trihydroxy-oxydiphenyl]",,8,207 to 209,2
,"Oc1c(Oc2cc(Cl)c(Cl)c(Cl)c2O)cc(Cl)c(Cl)c1Cl [A-III, 3,3′,4,4′,5,5′-Hexachloro-2,2′-dihydroxy-oxydiphenyl]",,0.24,,5
,"O=C(c1cc(Br)cc(Br)c1O)c1cc(Br)cc(Br)c1O [A-IV, 3,3′,5,5′-tetrabromo-2,2′-dihydroxybenzophenone]",4,5,,
,"Oc1c(Br)c(Br)c(-c2c(Br)c(Br)c(O)c(Br)c2Br)c(Br)c1Br [A-V, 2,2′,3,3′,5,5′,6,6′-Octabromo-4,4′-biphenol]",1,> 12,282,
,"Oc1c(Cl)c(Cl)c(-c2c(Cl)c(Cl)c(O)c(Cl)c2Cl)c(Cl)c1Cl [A-VI, 2,2′,3,3′,5,5′,6,6′-Octachloro-4,4′-biphenol]",11,0.22,94 to 96,
0.42,"Oc1c(F)c(F)c(-c2c(F)c(F)c(O)c(F)c2F)c(F)c1F [A-VII, 2,2′,3,3′,5,5′,6,6′-Octafluoro-4,4′-biphenol hydrate]",0.22,,,
